Measurements taken from ChEMBL document CHEMBL1201862, “PubChem BioAssay data set” (2004).
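Cultured in 96-well plates, cells were exposed to test compound for 48 hours across five concentrations. Here, GI50 denotes the concentration required for 50% inhibition of growth.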 The source made the active and inactive calls. Cut-off read from the data, not from the text of the source: active = GI50 up to about 1.1 µM and inactive = higher.

Columns and labels:
Test in all cases: NCI anticancer screen, dose series, 48 h
HOP-62 = system: HOP-62
HL-60 = system: HL-60
M14 = system: M14
HCC 2998 = system: HCC 2998
HOP-92 = system: HOP-92
KM-20L2 = system: KM-20L2
NCI-H23 = system: NCI-H23
SF-539 = system: SF-539
XF498 = system: XF498
HOP-18 = system: HOP-18
U-251 = system: U-251
SNB-19 = system: SNB-19
A549 = system: A549
DMS-273 = system: DMS-273
CAKI-1 = system: CAKI-1
NCI-H226 = system: NCI-H226
EKVX = system: EKVX
SNB-75 = system: SNB-75
SK-MEL-5 = system: SK-MEL-5
KM12 = system: KM12
SF-295 = system: SF-295
SK-OV-3 = system: SK-OV-3
SW-620 = system: SW-620
MOLT-4 = system: MOLT-4
OVCAR-4 = system: OVCAR-4
LOX IMVI = system: LOX IMVI
DLD-1 = system: DLD-1
OVCAR-8 = system: OVCAR-8
OVCAR-3 = system: OVCAR-3
TK-10 = system: TK-10
K562 = system: K562
SK-MEL-28 = system: SK-MEL-28
UACC-62 = system: UACC-62
NCI-H522 = system: NCI-H522
SN12C = system: SN12C
CCRF-CEM = system: CCRF-CEM
HT-29 = system: HT-29
DMS-114 = system: DMS-114
RXF 631 = system: RXF 631
A498 = system: A498
ACHN = system: ACHN
OVCAR-5 = system: OVCAR-5
M19-MEL = system: M19-MEL
RPMI-8226 = system: RPMI-8226
HCT-116 = system: HCT-116
IGROV-1 = system: IGROV-1
COLO 205 = system: COLO 205
LXFL 529 = system: LXFL 529
SF-268 = system: SF-268
NCI-H460 = system: NCI-H460
HCT-15 = system: HCT-15
SR = system: SR
SNB-78 = system: SNB-78
UACC-257 = system: UACC-257
786-0 = system: 786-0
RXF 393 = system: RXF 393
Malme-3M = system: Malme-3M
UO-31 = system: UO-31
SK-MEL-2 = system: SK-MEL-2

COC(=O)c1ccc(/C=C2\N=C(C)OC2=O)cc1
GI50 (HOP-62): > 100 µM (inactive) | GI50 (HL-60): > 100 µM (inactive) | GI50 (M14): > 100 µM (inactive) | GI50 (HCC 2998): > 100 µM (inactive) | GI50 (HOP-92): > 100 µM (inactive) | GI50 (KM-20L2): > 100 µM (inactive) | GI50 (NCI-H23): > 100 µM (inactive) | GI50 (SF-539): > 100 µM (inactive) | GI50 (XF498): > 100 µM (inactive) | GI50 (HOP-18): > 100 µM (inactive) | GI50 (U-251): > 100 µM (inactive) | GI50 (SNB-19): > 100 µM (inactive) | GI50 (A549): > 100 µM (inactive) | GI50 (DMS-273): > 100 µM (inactive) | GI50 (CAKI-1): > 100 µM (inactive) | GI50 (NCI-H226): > 100 µM (inactive) | GI50 (EKVX): > 100 µM (inactive) | GI50 (SNB-75): > 100 µM (inactive) | GI50 (SK-MEL-5): > 100 µM (inactive) | GI50 (KM12): > 100 µM (inactive) | GI50 (SF-295): > 100 µM (inactive) | GI50 (SK-OV-3): > 100 µM (inactive) | GI50 (SW-620): > 100 µM (inactive) | GI50 (MOLT-4): > 100 µM (inactive) | GI50 (OVCAR-4): > 100 µM (inactive) | GI50 (LOX IMVI): > 100 µM (inactive) | GI50 (DLD-1): > 100 µM (inactive) | GI50 (OVCAR-8): > 100 µM (inactive) | GI50 (OVCAR-3): > 100 µM (inactive) | GI50 (TK-10): > 100 µM (inactive) | GI50 (K562): > 100 µM (inactive) | GI50 (SK-MEL-28): > 100 µM (inactive) | GI50 (UACC-62): > 100 µM (inactive) | GI50 (NCI-H522): 59 µM (inactive) | GI50 (SN12C): > 100 µM (inactive) | GI50 (CCRF-CEM): > 100 µM (inactive) | GI50 (HT-29): > 100 µM (inactive) | GI50 (DMS-114): > 100 µM (inactive) | GI50 (RXF 631): > 100 µM (inactive) | GI50 (A498): > 100 µM (inactive) | GI50 (ACHN): > 100 µM (inactive) | GI50 (OVCAR-5): > 100 µM (inactive) | GI50 (M19-MEL): > 100 µM (inactive) | GI50 (RPMI-8226): > 100 µM (inactive) | GI50 (HCT-116): > 100 µM (inactive) | GI50 (IGROV-1): > 100 µM (inactive) | GI50 (COLO 205): > 100 µM (inactive) | GI50 (LXFL 529): > 100 µM (inactive) | GI50 (SF-268): > 100 µM (inactive) | GI50 (NCI-H460): > 100 µM (inactive) | GI50 (HCT-15): > 100 µM

Cc1c(C(Cc2ccccc2N(C)C(=O)/C=C\C(=O)O)c2c[nH]c3ccccc23)c2ccccc2n1C (stereo unspecified)
GI50 (HOP-62): 16.2 µM (inactive) | GI50 (HL-60): 4.66 µM (inactive) | GI50 (M14): 15.4 µM (inactive) | GI50 (HCC 2998): 16.3 µM (inactive) | GI50 (SR): 16.9 µM (inactive) | GI50 (SNB-78): 21.1 µM (inactive) | GI50 (KM-20L2): 18.1 µM (inactive) | GI50 (NCI-H23): 16.8 µM (inactive) | GI50 (SF-539): 16.6 µM (inactive) | GI50 (XF498): 21 µM (inactive) | GI50 (UACC-257): 15.7 µM (inactive) | GI50 (786-0): 16.4 µM (inactive) | GI50 (RXF 393): 14.2 µM (inactive) | GI50 (U-251): 16.4 µM (inactive) | GI50 (SNB-19): 18 µM (inactive) | GI50 (A549): 16.6 µM (inactive) | GI50 (DMS-273): 17.1 µM (inactive) | GI50 (CAKI-1): 19.3 µM (inactive) | GI50 (NCI-H226): 19.3 µM (inactive) | GI50 (EKVX): 16.3 µM (inactive) | GI50 (SNB-75): 16.5 µM (inactive) | GI50 (SK-MEL-5): 14.9 µM (inactive) | GI50 (Malme-3M): 6.14 µM (inactive) | GI50 (KM12): 15.6 µM (inactive) | GI50 (SF-295): 14.5 µM (inactive) | GI50 (SK-OV-3): 21.7 µM (inactive) | GI50 (SW-620): 18.1 µM (inactive) | GI50 (MOLT-4): 22.9 µM (inactive) | GI50 (OVCAR-4): 22.5 µM (inactive) | GI50 (LOX IMVI): 15.3 µM (inactive) | GI50 (DLD-1): 18.2 µM (inactive) | GI50 (OVCAR-8): 13.2 µM (inactive) | GI50 (OVCAR-3): 12.3 µM (inactive) | GI50 (TK-10): 17.7 µM (inactive) | GI50 (K562): 18.7 µM (inactive) | GI50 (UACC-62): 17.2 µM (inactive) | GI50 (NCI-H522): 15.1 µM (inactive) | GI50 (SN12C): 16 µM (inactive) | GI50 (CCRF-CEM): 14.9 µM (inactive) | GI50 (HT-29): 15.5 µM (inactive) | GI50 (DMS-114): 14.2 µM (inactive) | GI50 (RXF 631): 14.2 µM (inactive) | GI50 (A498): 17.9 µM (inactive) | GI50 (ACHN): 17.1 µM (inactive) | GI50 (OVCAR-5): 21.2 µM (inactive) | GI50 (M19-MEL): 15.7 µM (inactive) | GI50 (HCT-116): 15.1 µM (inactive) | GI50 (IGROV-1): 18.2 µM (inactive) | GI50 (COLO 205): 14.5 µM (inactive) | GI50 (LXFL 529): 12.7 µM (inactive) | GI50 (SF-268): 20.6 µM (inactive) | GI50 (NCI-H460): 15.3 µM (inactive) | GI50 (UO-31): 14.5 µM (inactive) | GI50 (SK-MEL-2): > 10 µM (inactive) | GI50 (HCT-15): 14.3 µM
